Results as given in ChEMBL document CHEMBL1158385, “New and selective ryanodine receptor activators for insect control” (Bioorg Med Chem, 2009).
Values after ≈ are worked out from the molar mass of the structure shown.

Columns and labels:
[1] = Solubility in water at 20 degC; assay type: physicochemical
[2] = Octanol-water partition coefficient, log P at 20 degC; assay type: physicochemical
Spodoptera frugiperda = test: Insecticidal activity against Spodoptera frugiperda larvae; assay type: functional, organism-based
Plutella xylostella = test: Insecticidal activity against Plutella xylostella larvae; assay type: functional, organism-based
Heliothis virescens = test: Insecticidal activity against Heliothis virescens larvae; assay type: functional, organism-based
[3] = Activation of ryanodine receptor in Periplaneta americana neurons
[4] = Activation of Heliothis virescens recombinant ryanodine receptor
Ryanodine receptor 1 = Ryanodine receptor 1 (Mus musculus, UniProt E9PZQ0); test: Activation of ryanodine receptor 1 in mouse C2C12 cells assessed as induction of calcium mobilization; assay type: cell-based
Ryanodine receptor 2 [5] = molecular target: Ryanodine receptor 2 (Rattus norvegicus, UniProt B0LPN4); test: Activation of ryanodine receptor 2 in rat PC12 cells assessed as induction of calcium mobilization; assay type: cell-based, PC-12
Ryanodine receptor 2 [6] = molecular target: Ryanodine receptor 2 (Homo sapiens, UniProt Q92736); test: Activation of ryanodine receptor in human IMR32 cells assessed as induction of calcium mobilization; assay type: cell-based, IMR-32
C2C12 = test: Selectivity for Heliothis virescens recombinant ryanodine receptor over ryanodine receptor 1 in mouse C2C12 cells; assay type: cell-based
PC-12 = test: Selectivity for Drosophila melanogaster ryanodine receptor over ryanodine receptor 2 in rat PC12 cells; assay type: cell-based
[7] = Activation of ryanodine receptor-mediated calcium release in Heliothis virescens neurons
physchem = conditions: octanol/water
Description: Octanol-water partition coefficient, log P at 24.9 degC

Chain of Ryanodine receptor 2 (Rattus norvegicus, UniProt B0LPN4) (B0LPN4 whole entry): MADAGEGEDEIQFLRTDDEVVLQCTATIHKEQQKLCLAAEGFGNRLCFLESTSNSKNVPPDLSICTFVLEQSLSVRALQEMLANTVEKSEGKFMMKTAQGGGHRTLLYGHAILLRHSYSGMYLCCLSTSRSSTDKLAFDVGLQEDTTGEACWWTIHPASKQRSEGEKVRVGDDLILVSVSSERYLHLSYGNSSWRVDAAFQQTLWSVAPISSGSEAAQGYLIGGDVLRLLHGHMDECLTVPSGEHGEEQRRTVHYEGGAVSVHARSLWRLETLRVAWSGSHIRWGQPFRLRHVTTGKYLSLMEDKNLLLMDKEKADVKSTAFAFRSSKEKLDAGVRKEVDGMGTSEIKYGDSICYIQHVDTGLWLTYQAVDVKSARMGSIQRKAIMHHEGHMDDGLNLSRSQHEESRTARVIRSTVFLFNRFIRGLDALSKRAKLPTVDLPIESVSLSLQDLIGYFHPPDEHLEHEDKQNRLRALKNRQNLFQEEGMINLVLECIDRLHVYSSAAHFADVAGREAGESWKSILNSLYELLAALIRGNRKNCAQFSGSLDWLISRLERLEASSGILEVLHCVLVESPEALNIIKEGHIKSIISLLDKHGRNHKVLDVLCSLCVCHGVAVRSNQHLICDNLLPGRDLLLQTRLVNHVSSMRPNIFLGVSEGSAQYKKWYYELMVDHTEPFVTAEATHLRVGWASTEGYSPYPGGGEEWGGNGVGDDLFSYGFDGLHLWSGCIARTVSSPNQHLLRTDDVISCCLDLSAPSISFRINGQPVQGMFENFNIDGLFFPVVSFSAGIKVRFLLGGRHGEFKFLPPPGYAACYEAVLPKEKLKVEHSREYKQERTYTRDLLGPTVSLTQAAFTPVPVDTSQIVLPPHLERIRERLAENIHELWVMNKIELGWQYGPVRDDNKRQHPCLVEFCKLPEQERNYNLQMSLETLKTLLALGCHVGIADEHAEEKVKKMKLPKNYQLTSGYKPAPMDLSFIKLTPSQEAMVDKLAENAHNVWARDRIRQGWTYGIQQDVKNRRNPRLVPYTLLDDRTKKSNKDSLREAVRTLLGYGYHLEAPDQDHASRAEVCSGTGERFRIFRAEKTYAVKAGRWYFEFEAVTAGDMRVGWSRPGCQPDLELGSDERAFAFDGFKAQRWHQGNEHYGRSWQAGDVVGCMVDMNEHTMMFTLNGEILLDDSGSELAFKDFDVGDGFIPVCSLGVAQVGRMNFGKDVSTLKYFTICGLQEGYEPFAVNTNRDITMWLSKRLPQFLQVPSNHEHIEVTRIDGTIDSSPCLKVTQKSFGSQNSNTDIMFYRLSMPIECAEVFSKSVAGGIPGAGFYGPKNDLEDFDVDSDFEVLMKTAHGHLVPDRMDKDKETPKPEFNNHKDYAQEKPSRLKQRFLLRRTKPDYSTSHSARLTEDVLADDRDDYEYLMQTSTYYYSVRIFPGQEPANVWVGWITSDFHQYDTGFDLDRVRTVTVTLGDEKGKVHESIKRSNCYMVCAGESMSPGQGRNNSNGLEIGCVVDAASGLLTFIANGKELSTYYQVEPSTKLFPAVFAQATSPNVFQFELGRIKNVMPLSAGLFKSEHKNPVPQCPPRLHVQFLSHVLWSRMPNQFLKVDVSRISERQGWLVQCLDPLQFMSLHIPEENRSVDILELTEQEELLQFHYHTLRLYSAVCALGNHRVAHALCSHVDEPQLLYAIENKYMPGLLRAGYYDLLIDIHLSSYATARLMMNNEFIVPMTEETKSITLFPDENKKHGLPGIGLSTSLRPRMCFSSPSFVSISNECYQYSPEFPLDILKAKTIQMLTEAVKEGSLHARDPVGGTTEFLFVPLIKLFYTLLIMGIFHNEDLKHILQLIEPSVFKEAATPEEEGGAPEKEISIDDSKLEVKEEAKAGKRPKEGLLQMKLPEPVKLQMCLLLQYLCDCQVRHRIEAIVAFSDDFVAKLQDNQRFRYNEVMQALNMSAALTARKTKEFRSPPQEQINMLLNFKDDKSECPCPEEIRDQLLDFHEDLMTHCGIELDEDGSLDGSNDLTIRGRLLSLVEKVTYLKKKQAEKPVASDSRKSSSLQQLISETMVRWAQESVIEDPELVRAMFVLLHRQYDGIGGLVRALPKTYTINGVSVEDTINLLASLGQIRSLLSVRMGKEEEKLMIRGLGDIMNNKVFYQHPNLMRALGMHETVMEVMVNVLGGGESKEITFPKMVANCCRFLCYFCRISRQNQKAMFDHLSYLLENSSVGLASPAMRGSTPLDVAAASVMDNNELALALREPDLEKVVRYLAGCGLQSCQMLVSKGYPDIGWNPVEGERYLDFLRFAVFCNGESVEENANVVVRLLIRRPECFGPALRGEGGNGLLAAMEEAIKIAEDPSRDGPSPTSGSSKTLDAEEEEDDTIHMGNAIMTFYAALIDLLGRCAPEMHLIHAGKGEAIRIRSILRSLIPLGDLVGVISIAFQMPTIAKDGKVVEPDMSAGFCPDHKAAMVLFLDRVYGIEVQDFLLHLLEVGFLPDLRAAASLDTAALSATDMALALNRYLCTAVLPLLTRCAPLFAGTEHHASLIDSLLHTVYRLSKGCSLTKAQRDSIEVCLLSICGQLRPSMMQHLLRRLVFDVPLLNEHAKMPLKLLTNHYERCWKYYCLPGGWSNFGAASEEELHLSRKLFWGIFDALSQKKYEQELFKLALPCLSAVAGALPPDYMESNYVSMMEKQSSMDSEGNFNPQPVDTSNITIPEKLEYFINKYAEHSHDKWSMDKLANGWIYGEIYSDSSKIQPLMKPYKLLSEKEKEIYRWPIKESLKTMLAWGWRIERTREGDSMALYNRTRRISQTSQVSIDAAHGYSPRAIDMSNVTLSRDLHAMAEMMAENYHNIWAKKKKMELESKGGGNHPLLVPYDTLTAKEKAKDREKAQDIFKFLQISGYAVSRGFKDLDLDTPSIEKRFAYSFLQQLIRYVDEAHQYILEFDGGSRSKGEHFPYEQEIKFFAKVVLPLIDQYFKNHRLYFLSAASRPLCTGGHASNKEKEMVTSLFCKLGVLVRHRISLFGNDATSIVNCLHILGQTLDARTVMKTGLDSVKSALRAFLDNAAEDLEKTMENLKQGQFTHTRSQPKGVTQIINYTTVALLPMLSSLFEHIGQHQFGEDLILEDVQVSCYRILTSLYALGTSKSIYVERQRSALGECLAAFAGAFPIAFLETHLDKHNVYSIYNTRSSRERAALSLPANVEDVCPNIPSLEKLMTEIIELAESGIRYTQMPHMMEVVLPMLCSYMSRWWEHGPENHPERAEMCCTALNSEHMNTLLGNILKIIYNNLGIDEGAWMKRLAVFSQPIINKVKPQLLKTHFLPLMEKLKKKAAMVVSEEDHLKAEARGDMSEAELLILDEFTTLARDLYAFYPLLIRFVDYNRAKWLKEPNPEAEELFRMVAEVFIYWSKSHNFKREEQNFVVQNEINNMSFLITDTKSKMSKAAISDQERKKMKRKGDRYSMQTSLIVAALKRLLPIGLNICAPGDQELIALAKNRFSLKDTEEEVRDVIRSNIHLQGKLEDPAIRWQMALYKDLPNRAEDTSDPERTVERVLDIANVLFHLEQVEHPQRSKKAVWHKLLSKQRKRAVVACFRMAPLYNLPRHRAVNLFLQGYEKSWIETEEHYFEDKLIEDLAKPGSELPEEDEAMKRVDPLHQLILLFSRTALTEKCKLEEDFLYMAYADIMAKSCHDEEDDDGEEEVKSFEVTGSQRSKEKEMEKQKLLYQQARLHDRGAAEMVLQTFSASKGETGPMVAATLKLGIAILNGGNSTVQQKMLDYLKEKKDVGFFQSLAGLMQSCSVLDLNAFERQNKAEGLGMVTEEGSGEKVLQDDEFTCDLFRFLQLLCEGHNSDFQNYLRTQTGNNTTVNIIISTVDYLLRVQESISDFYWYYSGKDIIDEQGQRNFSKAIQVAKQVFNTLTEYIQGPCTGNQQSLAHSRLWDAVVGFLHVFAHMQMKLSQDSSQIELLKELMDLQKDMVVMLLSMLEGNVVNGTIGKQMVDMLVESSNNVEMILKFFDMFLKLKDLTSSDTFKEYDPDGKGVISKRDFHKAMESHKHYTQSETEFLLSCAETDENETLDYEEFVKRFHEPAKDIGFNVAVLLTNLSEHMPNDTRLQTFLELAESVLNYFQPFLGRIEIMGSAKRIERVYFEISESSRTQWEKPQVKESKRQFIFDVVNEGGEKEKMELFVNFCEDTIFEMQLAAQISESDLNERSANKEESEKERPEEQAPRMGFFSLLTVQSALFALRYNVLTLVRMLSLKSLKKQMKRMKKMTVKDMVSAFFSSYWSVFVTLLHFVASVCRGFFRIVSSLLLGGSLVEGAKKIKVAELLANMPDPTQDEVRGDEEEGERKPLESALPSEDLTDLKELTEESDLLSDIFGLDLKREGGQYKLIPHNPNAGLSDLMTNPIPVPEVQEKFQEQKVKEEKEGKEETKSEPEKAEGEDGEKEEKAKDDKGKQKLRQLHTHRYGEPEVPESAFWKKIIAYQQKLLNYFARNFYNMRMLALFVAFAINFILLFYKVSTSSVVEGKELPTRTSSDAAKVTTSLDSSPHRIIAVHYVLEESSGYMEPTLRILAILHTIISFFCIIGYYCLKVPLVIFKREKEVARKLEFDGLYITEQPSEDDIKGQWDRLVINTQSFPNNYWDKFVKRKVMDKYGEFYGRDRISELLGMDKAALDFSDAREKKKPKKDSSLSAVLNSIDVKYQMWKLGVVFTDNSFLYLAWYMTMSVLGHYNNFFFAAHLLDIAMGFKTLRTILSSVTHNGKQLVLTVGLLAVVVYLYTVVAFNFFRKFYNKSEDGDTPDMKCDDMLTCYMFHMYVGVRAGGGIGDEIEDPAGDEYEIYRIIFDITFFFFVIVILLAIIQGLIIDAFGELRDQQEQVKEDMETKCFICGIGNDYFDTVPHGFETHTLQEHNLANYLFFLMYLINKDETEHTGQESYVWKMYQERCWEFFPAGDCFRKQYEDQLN

SMILES	solubility [1]	logP [2]	EC50 (Spodoptera frugiperda)	EC50 (Plutella xylostella)	EC50 (Heliothis virescens)	EC50 [3]	EC50 [4]	EC50 (Ryanodine receptor 1)	EC50 (Ryanodine receptor 2 [5])	EC50 (Ryanodine receptor 2 [6])	Selectivity ratio (C2C12)	Selectivity ratio (PC-12)	EC50 [7]	logP (physchem)
CNC(=O)c1cc(Cl)cc(C)c1NC(=O)c1cc(Br)nn1-c1ncccc1Cl [CHLORANTRANILIPROLE]	1 µg/mL (≈ 2.07 µM)	2.86	0.02 ppm	0.01 ppm	0.05 ppm	40 nM	40 nM	14000 nM	> 100000 nM	> 100000 nM	> 2000	300		
Cc1cc(C(F)(C(F)(F)F)C(F)(F)F)ccc1NC(=O)c1cccc(I)c1C(=O)NC(C)(C)CS(C)(=O)=O [FLUBENDIAMIDE]	0.03 µg/mL (≈ 0.044 µM)												690 nM	4.2
